In PMC10895697 (JAC-Antimicrobial Resistance, 2024):
Converted amounts (≈) assume the structure as drawn. Like-named read-outs stand apart in the source and are kept apart here.

Columns and labels:
S. aureus 1333 (MSSA) = assay: MIC/MBC by broth microdilution reference method; type: cell-based, Staphylococcus aureus
S. aureus 1818 (MSSA) = assay: MIC/MBC by broth microdilution reference method; type: cell-based, Staphylococcus aureus
[1] = system: S. aureus ATCC 29213 (MSSA reference strain); assay: MIC/MBC by broth microdilution reference method; type: cell-based, Staphylococcus aureus
S. aureus 1814 (MRSA) = assay: MIC/MBC by broth microdilution reference method; type: cell-based, Staphylococcus aureus
[2] = system: intra-macrophagic S. aureus; assay: Macrophage infection model (THP-1), intracellular activity; type: cell-based, Staphylococcus aureus; conditions: THP-1, MRSA 1814, MRSA 1815, MSSA 1333 and MSSA 1334, 2 x MIC, 24 h after treatment, vs untreated cells
Experimental: The macrophage infection model was performed using the THP-1 human monocytic cell line (ATCC, Rockville, USA). In brief, cells were cultured in the Roswell Park Memorial Institute (RPMI) medium supplemented with 10% FBS in T75 flasks at 37°C and 5% CO2, and were maintained through weekly transfers within passages 2 to 20. For the assays, THP-1 cells were seeded in 12-well plates and differentiated into macrophages with phorbol myristate acetate (PMA) for 72 h until they reached approximately 80% confluence. Bacterial suspensions, grown overnight in BHI, were prepared and adjusted to an moi of 10, and then introduced to the macrophages. After a 2 h coincubation to facilitate bacterial adherence, the cells were washed and treated with 100 mg/L gentamicin for 1 h. […] Finally, intracellular bacterial cells were enumerated from cellular lysates (following osmotic shock) by plating them onto BHI agar. Infected but untreated cells were used as a control in all experiments. The number of cfu in treated cells was standardized as a percentage of the controls.
(§1) Figure 2. […] Data represent the mean ± SD of three independent experiments. Intracellular cfu counts were normalized relative to untreated cells (depicted by black histograms), and differences between treated and untreated cells, as well as between the two compounds, were assessed using the Mann–Whitney U-test. ***P < 0.001; ****P < 0.0001.

all S. aureus isolates = assay: MIC/MBC by broth microdilution, summary over all isolates; type: cell-based, Staphylococcus aureus; conditions: for MIC: Staphylococcus aureus, read-out: MICs for all S. aureus isolates
[3] = system: intra-osteoblastic S. aureus; assay: Osteoblast infection model (MG-63), intracellular activity; type: cell-based, Staphylococcus aureus; conditions: MG-63, all four isolates (2 MSSA and 2 MRSA), 2 x MIC, 3 h after treatment, vs untreated cells
Experimental: The osteoblast infection model was conducted using MG-63 (CRL-1427) osteoblastic cells, following previously published procedures.[19] Briefly, MG-63 cells were cultured at 37°C in a 5% CO2 environment and passaged weekly for up to 20 weeks. The culture medium used was DMEM supplemented with 10% FBS, 25 mM HEPES, 2 mM L-glutamine, with or without antibiotics (100 U/mL penicillin plus 100 mg/L streptomycin). For the assays, MG-63 cells were seeded in 24-well plates until reaching 70%–80% confluence. Bacterial cell suspensions grown overnight in BHI broth were prepared and adjusted to an moi of 50, and then introduced to the osteoblasts. After a 2 h coincubation to facilitate bacterial adhesion, MG-63 cells were rinsed and treated with 100 mg/L gentamicin for 1 h to eliminate extracellular bacterial cells. […] Finally, intracellular bacterial cells were quantified in cellular lysates (following osmotic shock) by plating them onto BHI agar.
as §1, with “1.” for “2.”, “from” for “of”, “U-test. *P < 0.05; **P < 0.01;” for “U-test.”

S. aureus 1816 (MSSA) = assay: MIC/MBC by broth microdilution reference method; type: cell-based, Staphylococcus aureus
osteoblasts (MG-63) = system: osteoblasts (MG-63)
Experimental: (§2) In both models, the viability was assessed using the MTT assay to determine the potential cytotoxicity of antimicrobials on untreated and infected/treated cells. Briefly, an MTT solution (0.5 mg/mL) was added to the cell medium without FBS. After washing with PBS and a 30 min incubation at 37°C, the formazan crystals formed were dissolved in DMSO. Absorbance values at 540 nm were measured using a BioTek Synergy 2 microplate reader.

macrophages (THP-1) = system: macrophages (THP-1)
Experimental: as §2

S. aureus 1815 (MRSA) = assay: MIC/MBC by broth microdilution reference method; type: cell-based, Staphylococcus aureus
S. aureus 1817 (MSSA) = assay: MIC/MBC by broth microdilution reference method; type: cell-based, Staphylococcus aureus
S. aureus 1334 (MSSA) = assay: MIC/MBC by broth microdilution reference method; type: cell-based, Staphylococcus aureus
MSSA 1334 = assay: Mouse model of septic arthritis; type: in vivo; conditions: MSSA 1334-infected mice, Pep16 10 mg/kg or vancomycin 100 mg/kg subcutaneous daily
Experimental: Female Swiss mice, obtained from Janvier Labs and aged between 11 and 13 weeks with an approximate weight of 34 g, were used. The experiments were conducted in the ARCHE animal facility (Biosit) in Rennes. Mice were inoculated IV with 200 μL of a 0.9% NaCl solution containing approximately 10^8 cfu of the 1334 strain (MSSA). […] These treatments were administered daily for a duration of 7 days. […] The mice were monitored on a daily basis, and on the seventh day, they were humanely euthanized using CO2. Subsequently, knee joints, spleen and kidneys were excised, weighed and homogenized in 0.9% NaCl using a Polytron PT 3100D homogenizer (Kinematica, Switzerland). Bacterial loads were determined by plating serial dilutions onto BHI agar and expressed as log10 cfu/g.
Figure 3. Bacterial loads (in log cfu/g) at Day 7 in knee joints, kidneys and spleen from mice infected by MSSA 1334. Mice were initially inoculated with approximately 1 × 10^8 cfu of MSSA 1334. […] Treatments were administered via subcutaneous injection and continued daily until the conclusion of the experiment. Individual dots on the graph represent cfu counts for single animals (enumerated at Day 7), with black horizontal lines indicating median values. The experiments were performed with five mice per condition, in triplicate for Pep16 and saline solution, and in duplicate for vancomycin. […]

S. aureus = system: S. aureus; parameters: method as in ref 19 (Abad et al.); conditions: concentrations 10x or 100x respective MICs; ref 19 (Abad et al.); cited from earlier work
[4] = summary over all S. aureus isolates of Table 1, broth microdilution
[5] = strain 1333, MSSA multi-susceptible, broth microdilution
[6] = strain 1818, MSSA multi-susceptible, broth microdilution
[7] = reference strain ATCC 29213, MSSA, broth microdilution
[8] = strain 1814, MRSA ciprofloxacin resistant, broth microdilution
[9] = strain 1816, MSSA multi-susceptible, broth microdilution
[10] = strain 1815, MRSA gentamicin and erythromycin resistant, broth microdilution
[11] = strain 1817, MSSA erythromycin resistant, broth microdilution
[12] = strain 1334, MSSA multi-susceptible, broth microdilution

Molecule: C[C@H]1COc2c(N3CCN(C)CC3)c(F)cc3c(=O)c(C(=O)O)cn1c23 [LVX, levofloxacin]
- MBC (S. aureus 1333 (MSSA); Staphylococcus aureus, strain 1333, MSSA multi-susceptible, broth microdilution, read-out: MBC): 0.5 µg/mL (≈ 1.38 µM)
- MIC (S. aureus 1333 (MSSA); Staphylococcus aureus, strain 1333, MSSA multi-susceptible, broth microdilution, read-out: MIC): 0.5 µg/mL (≈ 1.38 µM)
- MBC (S. aureus 1818 (MSSA); Staphylococcus aureus, strain 1818, MSSA multi-susceptible, broth microdilution, read-out: MBC): 0.25 µg/mL (≈ 0.692 µM)
- MIC (S. aureus 1818 (MSSA); Staphylococcus aureus, strain 1818, MSSA multi-susceptible, broth microdilution, read-out: MIC): 0.25 µg/mL (≈ 0.692 µM)
- MBC ([1]; Staphylococcus aureus, reference strain ATCC 29213, MSSA, broth microdilution, read-out: MBC): 0.5 µg/mL (≈ 1.38 µM)
- MIC ([1]; Staphylococcus aureus, reference strain ATCC 29213, MSSA, broth microdilution, read-out: MIC): 0.5 µg/mL (≈ 1.38 µM)
- MBC (S. aureus 1814 (MRSA); Staphylococcus aureus, strain 1814, MRSA ciprofloxacin resistant, broth microdilution, read-out: MBC): 4 µg/mL (≈ 11.1 µM)
- MIC (S. aureus 1814 (MRSA); Staphylococcus aureus, strain 1814, MRSA ciprofloxacin resistant, broth microdilution, read-out: MIC): 4 µg/mL (≈ 11.1 µM)
- effect on intracellular inoculum in macrophages [2]: significantly reducing the intracellular inoculum
- MIC (all S. aureus isolates; [4]): 0.25 to 4 µg/mL (≈ 0.692 to 11.1 µM)
- effect on intracellular bacterial load in osteoblasts [3]: significantly reduced the bacterial load
- MBC (S. aureus 1816 (MSSA); Staphylococcus aureus, strain 1816, MSSA multi-susceptible, broth microdilution, read-out: MBC): 0.25 µg/mL (≈ 0.692 µM)
- MIC (S. aureus 1816 (MSSA); Staphylococcus aureus, strain 1816, MSSA multi-susceptible, broth microdilution, read-out: MIC): 0.25 µg/mL (≈ 0.692 µM)
- direct cytotoxicity on uninfected osteoblasts (MTT) (osteoblasts (MG-63)): did not observe any significant direct cytotoxicity
- direct cytotoxicity on uninfected macrophages (MTT) (macrophages (THP-1)): no significant direct cytotoxicity
- MBC (S. aureus 1815 (MRSA); Staphylococcus aureus, strain 1815, MRSA gentamicin and erythromycin resistant, broth microdilution, read-out: MBC): 0.5 µg/mL (≈ 1.38 µM)
- MIC (S. aureus 1815 (MRSA); Staphylococcus aureus, strain 1815, MRSA gentamicin and erythromycin resistant, broth microdilution, read-out: MIC): 0.5 µg/mL (≈ 1.38 µM)
- MBC (S. aureus 1817 (MSSA); Staphylococcus aureus, strain 1817, MSSA erythromycin resistant, broth microdilution, read-out: MBC): 0.25 µg/mL (≈ 0.692 µM)
- MIC (S. aureus 1817 (MSSA); Staphylococcus aureus, strain 1817, MSSA erythromycin resistant, broth microdilution, read-out: MIC): 0.25 µg/mL (≈ 0.692 µM)
- MBC (S. aureus 1334 (MSSA); Staphylococcus aureus, strain 1334, MSSA multi-susceptible, broth microdilution, read-out: MBC): 0.5 µg/mL (≈ 1.38 µM)
- MIC (S. aureus 1334 (MSSA); Staphylococcus aureus, strain 1334, MSSA multi-susceptible, broth microdilution, read-out: MIC): 0.5 µg/mL (≈ 1.38 µM)

Molecule: CN[C@H](CC(C)C)C(=O)N[C@H]1C(=O)N[C@@H](CC(N)=O)C(=O)N[C@H]2C(=O)N[C@H]3C(=O)N[C@H](C(=O)N[C@H](C(=O)O)c4cc(O)cc(O)c4-c4cc3ccc4O)[C@H](O)c3ccc(c(Cl)c3)Oc3cc2cc(c3O[C@@H]2O[C@H](CO)[C@@H](O)[C@H](O)[C@H]2O[C@H]2C[C@](C)(N)[C@H](O)[C@H](C)O2)Oc2ccc(cc2Cl)[C@H]1O [VAN, vancomycin]
- MBC (S. aureus 1333 (MSSA); Staphylococcus aureus, MSSA): 0.5 µg/mL (≈ 0.345 µM)
- MIC (S. aureus 1333 (MSSA); Staphylococcus aureus, MSSA): 0.5 µg/mL (≈ 0.345 µM)
- MBC (S. aureus 1818 (MSSA); Staphylococcus aureus, MSSA): 0.5 µg/mL (≈ 0.345 µM)
- MIC (S. aureus 1818 (MSSA); Staphylococcus aureus, MSSA): 0.5 µg/mL (≈ 0.345 µM)
- MBC ([1]; Staphylococcus aureus): 0.5 µg/mL (≈ 0.345 µM)
- MIC ([1]; Staphylococcus aureus): 0.5 µg/mL (≈ 0.345 µM)
- MBC (S. aureus 1814 (MRSA); Staphylococcus aureus, MRSA): 0.5 µg/mL (≈ 0.345 µM)
- MIC (S. aureus 1814 (MRSA); Staphylococcus aureus, MRSA): 0.5 µg/mL (≈ 0.345 µM)
- MIC (all S. aureus isolates): 0.5 µg/mL (≈ 0.345 µM)
- survival of infected mice at Day 7 (MSSA 1334): had survived at Day 7
- MBC (S. aureus 1816 (MSSA); Staphylococcus aureus, MSSA): 0.5 µg/mL (≈ 0.345 µM)
- MIC (S. aureus 1816 (MSSA); Staphylococcus aureus, MSSA): 0.5 µg/mL (≈ 0.345 µM)
- MBC (S. aureus 1815 (MRSA); Staphylococcus aureus, MRSA): 0.5 µg/mL (≈ 0.345 µM)
- MIC (S. aureus 1815 (MRSA); Staphylococcus aureus, MRSA): 0.5 µg/mL (≈ 0.345 µM)
- MBC (S. aureus 1817 (MSSA); Staphylococcus aureus, MSSA): 0.5 µg/mL (≈ 0.345 µM)
- MIC (S. aureus 1817 (MSSA); Staphylococcus aureus, MSSA): 0.5 µg/mL (≈ 0.345 µM)
- MBC (S. aureus 1334 (MSSA); Staphylococcus aureus, MSSA): 0.5 µg/mL (≈ 0.345 µM)
- MIC (S. aureus 1334 (MSSA); Staphylococcus aureus, MSSA): 0.5 µg/mL (≈ 0.345 µM)

Molecule: teicoplanin [TEC]
- MBC (S. aureus 1333 (MSSA); [5]): 1 µg/mL
- MIC (S. aureus 1333 (MSSA); [5]): 0.5 µg/mL
- MBC (S. aureus 1818 (MSSA); [6]): 2 µg/mL
- MIC (S. aureus 1818 (MSSA); [6]): 1 µg/mL
- MBC [1, 7]: 1 µg/mL
- MIC [1, 7]: 0.5 µg/mL
- MBC (S. aureus 1814 (MRSA); [8]): 1 µg/mL
- MIC (S. aureus 1814 (MRSA); [8]): 0.5 µg/mL
- MICs for all S. aureus isolates (all S. aureus isolates; [4]): 0.25 to 1 mg/L
- MBC (S. aureus 1816 (MSSA); [9]): 0.5 µg/mL
- MIC (S. aureus 1816 (MSSA); [9]): 0.25 µg/mL
- MBC (S. aureus 1815 (MRSA); [10]): 1 µg/mL
- MIC (S. aureus 1815 (MRSA); [10]): 0.5 µg/mL
- MBC (S. aureus 1817 (MSSA); [11]): 1 µg/mL
- MIC (S. aureus 1817 (MSSA); [11]): 0.5 µg/mL
- MBC (S. aureus 1334 (MSSA); [12]): 0.5 µg/mL
- MIC (S. aureus 1334 (MSSA); [12]): 0.25 µg/mL

Molecule: CO[C@H]1/C=C/O[C@@]2(C)Oc3c(C)c(O)c4c(c3C2=O)C2=NC3(CCN(CC(C)C)CC3)NC2=C(NC(=O)/C(C)=C\C=C\[C@H](C)[C@H](O)[C@@H](C)[C@@H](O)[C@@H](C)[C@H](OC(C)=O)[C@@H]1C)C4=O [rifabutin]
- reduction in intracellular bacteria (S. aureus): around 62.1%
